Data published in patent US20260015350A1, “AZAQUINAZOLINE PAN-KRAS INHIBITORS” (Mirati Therapeutics, Inc., priority 2022, published 2026).

Assays:
[1] = system: KRas-mediated phosphorylation of ERK in AsPC-1 cells; assay: Inhibition of KRas-mediated phosphorylation of ERK (Cisbio HTRF pERK), AsPC-1 cells; assay type: cell-based; conditions: Homo sapiens, ASPC1, AsPC-1 cells; HTRF pERK
Outline: (§1)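 Min control wells contained 0.2 uM Trametinib, while test compounds ran as 10 doses (3-fold, top 10 uM; 0.8% DMSO final) on cells for 3 hrs. After 40 mins lysis at 4° C, lysates were probed with HTRF antibodies for 2 hrs at room temperature.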

[2] = biological target: T1, KRas^G12S (Homo sapiens, UniProt P01116, G12S); assay: KRas binding assay (TR-FRET tracer displacement), KRas G12S; conditions: single point, 10 nM compound, TR-FRET
T1 construct: Biotinylated KRas (corresponding to amino acids 1-169, produced at Accelegan Inc.); biotin (biotinylated); purchased Accelegan Inc
T1 sequence (P01116 1-169 isoform P01116-2 G12S): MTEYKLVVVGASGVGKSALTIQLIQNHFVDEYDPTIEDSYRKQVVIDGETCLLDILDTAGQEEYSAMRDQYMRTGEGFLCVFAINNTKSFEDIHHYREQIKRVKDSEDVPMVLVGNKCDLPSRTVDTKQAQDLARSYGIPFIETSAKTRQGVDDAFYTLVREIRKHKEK

[3] = biological target: T2, KRas^G13D (Homo sapiens, UniProt P01116, G13D); assay: KRas binding assay (TR-FRET tracer displacement), KRas G13D; conditions: single point, 10 nM compound, TR-FRET
T2 construct: Biotinylated KRas (corresponding to amino acids 1-169, produced at Accelegan Inc.); biotin (biotinylated); purchased Accelegan Inc
T2 sequence (P01116 1-169 isoform P01116-2 G13D): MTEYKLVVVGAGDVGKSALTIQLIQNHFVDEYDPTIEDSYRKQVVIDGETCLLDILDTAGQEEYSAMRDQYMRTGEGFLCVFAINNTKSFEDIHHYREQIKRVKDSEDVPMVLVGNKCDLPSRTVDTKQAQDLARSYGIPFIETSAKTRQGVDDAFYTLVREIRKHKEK

[4] = biological target: T3, KRas^G12V (Homo sapiens, UniProt P01116, G12V); assay: KRas binding assay (TR-FRET tracer displacement), KRas G12V
T3 construct: Biotinylated KRas (corresponding to amino acids 1-169, produced at Accelegan Inc.); biotin (biotinylated); purchased Accelegan Inc
T3 sequence (P01116 1-169 isoform P01116-2 G12V): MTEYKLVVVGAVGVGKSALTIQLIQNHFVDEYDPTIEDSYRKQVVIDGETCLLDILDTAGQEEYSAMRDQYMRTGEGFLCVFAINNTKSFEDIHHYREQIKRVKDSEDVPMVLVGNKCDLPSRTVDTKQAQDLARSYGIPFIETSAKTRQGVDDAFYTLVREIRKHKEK

[5] = biological target: T4, KRas^G12C (Homo sapiens, UniProt P01116, G12C); assay: KRas binding assay (TR-FRET tracer displacement), KRas G12C; conditions: single point, 10 nM compound, TR-FRET
T4 construct: Biotinylated KRas (corresponding to amino acids 1-169, produced at Accelegan Inc.); biotin (biotinylated); purchased Accelegan Inc
T4 sequence (P01116 1-169 isoform P01116-2 G12C): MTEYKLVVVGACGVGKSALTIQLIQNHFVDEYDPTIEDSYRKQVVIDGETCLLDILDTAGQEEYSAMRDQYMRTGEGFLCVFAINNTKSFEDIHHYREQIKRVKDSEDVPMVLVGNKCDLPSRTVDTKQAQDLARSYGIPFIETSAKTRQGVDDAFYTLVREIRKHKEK

[6] = system: KRas-mediated phosphorylation of ERK in H358 cells; assay: Inhibition of KRas-mediated phosphorylation of ERK (Cisbio HTRF pERK), H358 cells; assay type: cell-based; conditions: Homo sapiens, NCI-H358, 3 h, single point, 100 nM compound, 3 hrs
Outline: as §1

[7] = system: KRas-mediated phosphorylation of ERK in PSN1 cells; assay: Inhibition of KRas-mediated phosphorylation of ERK (Cisbio HTRF pERK), PSN1 cells; assay type: cell-based; conditions: Homo sapiens
Outline: (§2)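 Phospho-ERK is quantified by HTRF with the Advanced pERK kit. Cells go in at 6,000/well in RPMI plus 10% FBS overnight at 37° C. under 5% CO2, with a 4-hour covered room-temperature incubation ahead of the read.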

[8] = biological target: T5, KRas^G12D (Homo sapiens, UniProt P01116, G12D); assay: KRas binding assay (TR-FRET tracer displacement), KRas G12D
T5 construct: Biotinylated KRas (corresponding to amino acids 1-169, produced at Accelegan Inc.); biotin (biotinylated); purchased Accelegan Inc
T5 sequence (P01116 1-169 isoform P01116-2 G12D): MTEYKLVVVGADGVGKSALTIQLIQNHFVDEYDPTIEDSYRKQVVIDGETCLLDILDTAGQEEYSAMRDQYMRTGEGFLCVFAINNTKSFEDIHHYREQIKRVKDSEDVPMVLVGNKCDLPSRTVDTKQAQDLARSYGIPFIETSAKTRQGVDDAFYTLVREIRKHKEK

[9] = biological target: T6, KRas^G12R (Homo sapiens, UniProt P01116, G12R); assay: KRas binding assay (TR-FRET tracer displacement), KRas G12R
T6 construct: Biotinylated KRas (corresponding to amino acids 1-169, produced at Accelegan Inc.); biotin (biotinylated); purchased Accelegan Inc
T6 sequence (P01116 1-169 isoform P01116-2 G12R): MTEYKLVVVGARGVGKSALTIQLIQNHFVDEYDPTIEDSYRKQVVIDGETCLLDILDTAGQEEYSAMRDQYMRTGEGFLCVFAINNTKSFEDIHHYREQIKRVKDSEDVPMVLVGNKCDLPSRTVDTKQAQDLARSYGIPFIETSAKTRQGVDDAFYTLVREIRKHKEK

[10] = system: KRas-mediated phosphorylation of ERK in A549 cells; assay: Inhibition of KRas-mediated phosphorylation of ERK (Cisbio HTRF pERK), A549 cells; assay type: cell-based; conditions: Homo sapiens, A549, 3 h, single point, 100 nM compound, 3 hrs
Outline: (§3)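 6,000 cells/well; cpd 10 uM top, 3-fold x10, 0.8% DMSO final; 3 hr incubation; Min ctrl Trametinib 0.2 uM; lysis 40 min 4° C shaking; d2 + Cryptate Ab mix, 2 hr RT; HTRF read.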

[11] = system: KRas-mediated phosphorylation of ERK in MKN1 cells; assay: Inhibition of KRas-mediated phosphorylation of ERK (Cisbio HTRF pERK), MKN1 cells; assay type: cell-based; conditions: Homo sapiens, MKN-1
Outline: as §2

[12] = system: KRas-mediated phosphorylation of ERK in HCT116 cells; assay: Inhibition of KRas-mediated phosphorylation of ERK (Cisbio HTRF pERK), HCT116 cells; assay type: cell-based; conditions: Homo sapiens; for inhibition at 0.1 µM: HCT-116, 3 h, single point, 100 nM compound, 3 hrs
Outline: as §3

[13] = system: KRas-mediated phosphorylation of ERK in H727 cells; assay: Inhibition of KRas-mediated phosphorylation of ERK (Cisbio HTRF pERK), H727 cells; assay type: cell-based; conditions: Homo sapiens, NCI-H727, H727 cells; HTRF pERK
Outline: as §1

[14] = biological target: T7, KRas^Q61H (Homo sapiens, UniProt P01116, Q61H); assay: KRas binding assay (TR-FRET tracer displacement), KRas Q61H; conditions: single point, 10 nM compound, TR-FRET
T7 construct: Biotinylated KRas (corresponding to amino acids 1-169, produced at Accelegan Inc.); biotin (biotinylated); purchased Accelegan Inc
T7 sequence (P01116 1-169 isoform P01116-2 Q61H): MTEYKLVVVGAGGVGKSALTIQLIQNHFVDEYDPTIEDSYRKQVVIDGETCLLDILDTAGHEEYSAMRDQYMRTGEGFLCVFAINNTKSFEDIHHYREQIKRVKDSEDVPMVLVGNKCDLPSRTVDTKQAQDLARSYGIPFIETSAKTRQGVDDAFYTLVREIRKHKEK

[15] = biological target: T8, KRas^G12A (Homo sapiens, UniProt P01116, G12A); assay: KRas binding assay (TR-FRET tracer displacement), KRas G12A; conditions: single point, 10 nM compound, TR-FRET
T8 construct: Biotinylated KRas (corresponding to amino acids 1-169, produced at Accelegan Inc.); biotin (biotinylated); purchased Accelegan Inc
T8 sequence (P01116 1-169 isoform P01116-2 G12A): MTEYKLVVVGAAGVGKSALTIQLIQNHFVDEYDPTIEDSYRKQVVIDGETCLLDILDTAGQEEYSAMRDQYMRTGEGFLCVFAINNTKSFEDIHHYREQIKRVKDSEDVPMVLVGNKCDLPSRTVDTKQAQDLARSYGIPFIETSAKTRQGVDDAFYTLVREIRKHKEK

[16] = system: KRas-mediated phosphorylation of ERK in H460 cells; assay: Inhibition of KRas-mediated phosphorylation of ERK (Cisbio HTRF pERK), H460 cells; assay type: cell-based; conditions: Homo sapiens; for inhibition at 0.1 µM: NCI-H460, 3 h, single point, 100 nM compound, 3 hrs
Outline: as §1

[17] = biological target: T9, KRas^WT (Homo sapiens, UniProt P01116); assay: KRas binding assay (TR-FRET tracer displacement), KRas WT; conditions: single point, 10 nM compound, TR-FRET
T9 construct: Biotinylated KRas (corresponding to amino acids 1-169, produced at Accelegan Inc.); biotin (biotinylated); purchased Accelegan Inc
T9 sequence (P01116 1-169 isoform P01116-2): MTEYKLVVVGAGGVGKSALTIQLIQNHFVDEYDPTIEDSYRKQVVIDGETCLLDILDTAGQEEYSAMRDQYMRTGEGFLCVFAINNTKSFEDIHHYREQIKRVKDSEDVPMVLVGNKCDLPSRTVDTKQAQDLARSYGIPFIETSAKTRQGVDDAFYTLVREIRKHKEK

| IC50 [1] | inhibition at 0.01 µM [2] | inhibition at 0.01 µM [3] | IC50 [4] | inhibition at 0.01 µM [5] | IC50 [7] | IC50 [8] | IC50 [9] | IC50 [11] | IC50 [13] | inhibition at 0.01 µM [14] | inhibition at 0.01 µM [15] | inhibition at 0.01 µM [17] | IC50 ([12]; HCT-116, HTRF pERK) | IC50 ([16]; NCI-H460, HTRF pERK) | SMILES | inhibition at 0.1 µM [6] | inhibition at 0.1 µM [10] | inhibition at 0.1 µM [12] | inhibition at 0.1 µM [16] |
| --- | --- | --- | --- | --- | --- | --- | --- | --- | --- | --- | --- | --- | --- | --- | --- | --- | --- | --- | --- |
| 63 nM | 94% | 97% | < 2 nM | 95% | 253 nM | < 2 nM | < 2 nM | 3 nM | 53 nM | 99% | 80% | 91% | – | – | CCc1c(F)ccc2cc(O)cc(-c3ncc4c(N5CCCC6(C5)NC(=O)NC6=O)nc(OC[C@]56CCCN5[C@H](COC(=O)N(C)C)CC6)nc4c3F)c12 (stereo partly drawn) [Example 709, ((3S,7aR)-7a-(((4-(2,4-dioxo-1,3,7-triazaspiro[4.5]decan-7-yl)-7-(8-ethyl-7-fluoro-3-hydroxynaphthalen-1-yl)-8-fluoropyrido[4,3-d]pyrimidin-2-yl)oxy)methyl)hexahydro-1H-pyrrolizin-3-yl)methyl dimethylcarbamate] | 101% | 62% | 65% | 88% |
| 26 nM | 95% | 85% | < 2 nM | 94% | > 10000 nM | < 2 nM | 2 nM | 95 nM | 89 nM | 87% | 89% | 85% | 760 nM | 193 nM | CCc1c(F)ccc2cc(O)cc(-c3ncc4c(N5CCCn6nc(C(=O)N(C)C)cc6C5)nc(OC[C@]56CCCN5[C@H](COC(=O)N(C)C)CC6)nc4c3F)c12 [Example 714, ((3S,7aR)-7a-(((4-(2-(dimethylcarbamoyl)-7,8-dihydro-4H-pyrazolo[1,5-a][1,4]diazepin-5(6H)-yl)-7-(8-ethyl-7-fluoro-3-hydroxynaphthalen-1-yl)-8-fluoropyrido[4,3-d]pyrimidin-2-yl)oxy)methyl)hexahydro-1H-pyrrolizin-3-yl)methyl dimethylcarbamate] | 73% | 16% | – | – |
| 39 nM | 95% | 98% | < 2 nM | 97% | 1020 nM | < 2 nM | < 2 nM | 9 nM | 273 nM | 98% | 83% | 93% | – | – | CCc1c(F)ccc2cc(O)cc(-c3ncc4c(N5CCCC6(CNS(=O)(=O)N6)C5)nc(OC[C@]56CCCN5[C@H](COC(=O)N(C)C)CC6)nc4c3F)c12 (stereo partly drawn) [Example 716, ((3S,7aR)-7a-(((4-(2,2-dioxido-2-thia-1,3,7-triazaspiro[4.5]decan-7-yl)-7-(8-ethyl-7-fluoro-3-hydroxynaphthalen-1-yl)-8-fluoropyrido[4,3-d]pyrimidin-2-yl)oxy)methyl)hexahydro-1H-pyrrolizin-3-yl)methyl dimethylcarbamate] | 71% | 37% | 34% | 56% |
